Values quoted from earlier work as cited in patent publication US8440796B2, “Lenalidomide and thalidomide immunoassays” (Saladax Biomedical Inc., priority 2010, dated 2013).
Like-named read-outs stand apart in the source and are kept apart here.

Legend:
[1] = healthy subjects
[2] = HIV patients, phase I study
[3] = patients with central nervous system tumors

SMILES | variability in Cmax [1] | variability in t1/2 [1] | half-life time t1/2 [2] [h] | maximum drug concentration Cmax [2] [ng/mL] | variability in Cmax [3] | variability in t1/2 [3]
O=C1CCC(N2C(=O)c3ccccc3C2=O)C(=O)N1 (stereo not drawn) [thalidomide] | up to 52% | up to 37% | 5.9 ± 2.3 | 2800 ± 2600 | – | –
Nc1cccc2c1CN(C1CCC(=O)NC1=O)C2=O (stereo not drawn) [lenalidomide] | – | – | – | – | up to 78% | up to 122%
